Test results: article PMC7041630 (Experimental neurology, 2018)

How the values were obtained:
[1] = Liver microsome stability assay; assay type: in vitro ADME, macaque; conditions: 2 μM compound, 0.5 mg mL−1 microsomes, with NADPH, one hour
[2] = Single-dose IV/PO pharmacokinetics in rats; assay type: in vivo, rat; conditions: for bioavailability: oral dosing, 1% methylcellulose vehicle
WT-LRRK2 = assay type: in vivo, rat; conditions: non-transgenic rats; for phospho-LRRK2 in total protein lysates from kidney: higher concentrations of inhibitor; for total LRRK2 protein in the brain: higher concentrations, three days; for total LRRK2 protein in the lung (normalized to HSC70): three days of drug treatment
[3] = test system: pT73-Rab10 in mouse macrophages; test: Ex vivo pT73-Rab10 western blot, mouse macrophages; assay type: cell-based; conditions: 100 nM, two hours
[4] = test system: pT73-Rab10 in human neutrophils; test: Ex vivo pT73-Rab10 western blot, human neutrophils; assay type: cell-based; conditions: 100 nM, two hours
[5] = test system: pT73-Rab10 in human PBMCs; test: Ex vivo pT73-Rab10 western blot, human PBMCs; assay type: cell-based; conditions: 100 nM, two hours
Drug properties = assay type: physicochemical
LRRK2 = conditions: ref Fell et al., 2015, Henderson et al., West; cited from earlier work
[6] = molecular target: recombinant human WT-LRRK2 (Homo sapiens, UniProt Q5S007); test: LanthaScreen LRRKtide phosphorylation assay, WT-LRRK2; assay type: biochemical; conditions: LanthaScreen at Km,app(ATP)
[7] = In-diet dosing, plasma drug levels in rats; assay type: in vivo, rat; conditions: chow up to 1050 mg kg−1

recombinant human WT-LRRK2, sequence (Q5S007 whole entry): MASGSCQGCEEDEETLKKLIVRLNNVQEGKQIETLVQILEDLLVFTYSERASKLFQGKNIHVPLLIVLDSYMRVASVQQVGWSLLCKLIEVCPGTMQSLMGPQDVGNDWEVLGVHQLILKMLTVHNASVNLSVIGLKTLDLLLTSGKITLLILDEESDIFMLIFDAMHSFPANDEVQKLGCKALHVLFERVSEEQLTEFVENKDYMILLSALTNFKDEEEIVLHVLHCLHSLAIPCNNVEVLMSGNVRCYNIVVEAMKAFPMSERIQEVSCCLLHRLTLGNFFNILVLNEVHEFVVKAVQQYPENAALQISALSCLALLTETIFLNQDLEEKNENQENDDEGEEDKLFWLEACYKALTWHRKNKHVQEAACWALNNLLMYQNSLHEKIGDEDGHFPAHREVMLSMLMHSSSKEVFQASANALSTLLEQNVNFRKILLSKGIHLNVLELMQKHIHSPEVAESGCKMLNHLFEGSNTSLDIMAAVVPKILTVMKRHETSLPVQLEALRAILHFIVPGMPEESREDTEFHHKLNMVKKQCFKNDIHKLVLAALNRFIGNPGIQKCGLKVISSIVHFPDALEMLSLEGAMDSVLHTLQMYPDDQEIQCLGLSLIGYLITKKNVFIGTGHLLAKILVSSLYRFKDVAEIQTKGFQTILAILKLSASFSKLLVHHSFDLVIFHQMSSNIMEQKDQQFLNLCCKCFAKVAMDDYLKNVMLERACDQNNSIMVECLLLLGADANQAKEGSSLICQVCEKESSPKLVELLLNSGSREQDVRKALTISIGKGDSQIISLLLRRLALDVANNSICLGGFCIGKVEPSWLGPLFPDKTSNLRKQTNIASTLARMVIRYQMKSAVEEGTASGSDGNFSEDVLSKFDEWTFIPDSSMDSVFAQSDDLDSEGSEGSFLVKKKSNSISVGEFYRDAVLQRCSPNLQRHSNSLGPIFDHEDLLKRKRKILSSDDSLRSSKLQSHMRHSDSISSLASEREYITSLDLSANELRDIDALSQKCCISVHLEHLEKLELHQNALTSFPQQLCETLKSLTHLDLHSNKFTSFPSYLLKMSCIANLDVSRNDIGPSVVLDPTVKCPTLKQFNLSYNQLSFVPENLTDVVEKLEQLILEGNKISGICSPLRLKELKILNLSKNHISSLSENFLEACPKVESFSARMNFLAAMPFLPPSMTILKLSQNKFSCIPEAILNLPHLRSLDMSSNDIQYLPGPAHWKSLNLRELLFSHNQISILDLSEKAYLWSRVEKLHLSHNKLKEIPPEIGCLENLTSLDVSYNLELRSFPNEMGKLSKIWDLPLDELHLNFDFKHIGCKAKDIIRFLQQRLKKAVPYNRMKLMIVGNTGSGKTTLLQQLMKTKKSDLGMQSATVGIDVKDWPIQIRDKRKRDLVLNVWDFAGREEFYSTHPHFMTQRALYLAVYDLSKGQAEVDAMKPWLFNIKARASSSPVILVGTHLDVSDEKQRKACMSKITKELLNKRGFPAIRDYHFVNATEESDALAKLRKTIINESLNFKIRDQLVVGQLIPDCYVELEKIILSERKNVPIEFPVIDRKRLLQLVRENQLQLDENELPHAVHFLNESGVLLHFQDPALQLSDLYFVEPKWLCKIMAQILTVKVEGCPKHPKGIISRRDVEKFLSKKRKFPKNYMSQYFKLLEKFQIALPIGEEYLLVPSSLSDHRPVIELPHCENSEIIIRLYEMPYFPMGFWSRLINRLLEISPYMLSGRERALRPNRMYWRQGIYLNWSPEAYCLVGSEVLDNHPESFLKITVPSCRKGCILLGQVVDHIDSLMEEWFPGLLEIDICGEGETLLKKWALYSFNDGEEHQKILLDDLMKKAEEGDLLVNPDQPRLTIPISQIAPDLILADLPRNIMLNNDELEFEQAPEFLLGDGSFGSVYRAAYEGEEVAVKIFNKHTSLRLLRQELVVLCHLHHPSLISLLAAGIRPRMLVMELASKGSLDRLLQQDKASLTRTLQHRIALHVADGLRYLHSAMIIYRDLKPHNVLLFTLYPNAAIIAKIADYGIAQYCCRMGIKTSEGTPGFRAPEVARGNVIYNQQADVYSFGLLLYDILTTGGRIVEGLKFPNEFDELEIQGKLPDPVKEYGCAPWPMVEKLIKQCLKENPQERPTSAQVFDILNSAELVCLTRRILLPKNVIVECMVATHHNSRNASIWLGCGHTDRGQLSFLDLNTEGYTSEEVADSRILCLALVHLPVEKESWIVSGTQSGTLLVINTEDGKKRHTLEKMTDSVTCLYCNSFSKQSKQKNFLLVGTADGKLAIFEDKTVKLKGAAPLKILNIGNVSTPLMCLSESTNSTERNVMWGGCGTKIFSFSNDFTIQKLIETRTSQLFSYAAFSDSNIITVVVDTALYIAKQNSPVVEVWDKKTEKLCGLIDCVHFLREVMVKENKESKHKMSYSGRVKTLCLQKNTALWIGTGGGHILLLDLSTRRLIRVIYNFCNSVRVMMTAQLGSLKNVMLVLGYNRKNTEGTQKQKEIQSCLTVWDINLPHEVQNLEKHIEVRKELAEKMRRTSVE

Row | brain penetrant [2] | bioavailability [2] | aqueous solubility (Drug properties; compared to PF-360) | more potent in blocking LRRKtide phosphorylation than autophosphorylation [6] | brain-to-plasma ratio (total compound) [2] | correlation of plasma to brain concentrations (r) ([2]; total compound) | highest plasma concentration achieved with in-diet dosing [7] [nM] | lipophilicity (Drug properties; compared to MLi2) | SMILES | microsomal stability, compound remaining [1] | phospho-LRRK2 in total protein lysates from kidney (WT-LRRK2) | total LRRK2 protein in the brain (WT-LRRK2) | total LRRK2 protein in the lung (normalized to HSC70) (WT-LRRK2) | pT73-Rab10 signal [3] | pT73-Rab10 signal [4] | pRab10 signal [5] | binding in vitro (LRRK2)
1 | ~ 75% | ~ 40% | poor |  |  |  |  |  | C[C@@H]1CN(c2cc(-c3n[nH]c4ccc(OC5(C)CC5)cc34)ncn2)C[C@H](C)O1 [MLi2] | no significant concentrations of compound left after one-hour incubation | essentially no phospho-LRRK2 remaining | did not show these trends | did not reduce | virtually eliminated pT73-Rab10 signal | virtually eliminated pT73-Rab10 signal | could not observe a reliable reduction in pRab10 | low to sub-nanomolar
2 |  | ~ 40% |  | ~ 1 order of magnitude | 0.48±0.03 | 0.89 | ≤ 100 | lower lipophilicity | Cn1cc(-c2c[nH]c3ncnc(N4CCOCC4)c23)cc1C#N [PF-360] | no significant concentrations of compound left after one-hour incubation | essentially no phospho-LRRK2 remaining | reduce total LRRK2 protein in the brain nearly to the same extent as reducing the amount of phosphorylated LRRK2 protein | did not reduce |  |  |  | low to sub-nanomolar
